Experimental data: patent US7625887B2, “Receptor agonists” (Takeda Pharmaceutical Company Limited, priority 2003, dated 2009)

Columns and labels:
[1] = test system: guinea pig TGR5; assay: cAMP production increasing activity in guinea pig TGR5 expressing CHO cells; type: cell-based; details: test compound 2 μM; 10 μM lithocholic acid = 100%; average of 3 groups
Method: (§1) The guinea pig type TGR5 expressing CHO cells were seeded in one 150 cm^2 flask at 1×10^7 cells, and cultured overnight at 37° C., 5% CO2. After culture, the cells were detached with 0.5 mM EDTA/PBS, washed with PBS, and suspended in Buffer 1 (HBSS+0.1% BSA, 25 mM HEPES pH 7.3, 0.5 mM IBMX) at a density of 1×10^7 cells/ml. The obtained cell suspension (460 μl), anti-cAMP acceptor beads (23 μl) of AlphaScreen cAMP assay kit (Perkin Elmer) and Buffer 1 (667 μl) were mixed and dispensed to a white 96 well plate (Costar) by 10 μl. Then, a test compound diluted with Buffer 1 was added to each well by 10 μl. At this time, one row of the plate was free of the cell suspension but added with anti-cAMP acceptor beads (9 μl) and Buffer 1 (441 μl) alone, and serial dilutions of cAMP were added instead of the test compound and used as the standard. A mixture of the cell suspension and the test compound contained in the plate was allowed to react at room temperature for 30 min. […] The plate was shaken at room temperature for 2.5 hrs and fluorescence intensity was measured by Fusion α (Parkin Elmer), and the cAMP concentration of each well was calculated using the cAMP standard on each plate.

[2] = molecular target: T1, rat TGR5 (Rattus norvegicus, UniProt Q80T02); assay: cAMP production increasing activity in rat type TGR5 expressing CHO cells; type: cell-based; details: 0.5 h, read-out: cAMP producing activity (control %)
T1 construct: expressed in transfected cells; host or cells: CHO cells
T1 sequence (Q80T02 1-329): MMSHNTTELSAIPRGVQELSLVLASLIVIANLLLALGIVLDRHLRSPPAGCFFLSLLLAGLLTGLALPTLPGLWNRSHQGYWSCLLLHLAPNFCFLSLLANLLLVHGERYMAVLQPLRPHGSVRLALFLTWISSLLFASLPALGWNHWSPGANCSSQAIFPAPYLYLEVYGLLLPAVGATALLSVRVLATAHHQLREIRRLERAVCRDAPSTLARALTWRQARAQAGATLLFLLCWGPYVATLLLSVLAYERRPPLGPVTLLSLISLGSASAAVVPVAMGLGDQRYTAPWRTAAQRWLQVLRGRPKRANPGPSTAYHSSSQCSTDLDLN
Method: as §1, with “After” for “The guinea pig type TGR5 expressing CHO cells were seeded in one 150 cm^2 flask at 1×10^7 cells, and cultured overnight at 37° C., 5% CO2. After”

[3] = test system: rat intestine primary culture cells; assay: GLP-1 secretion from rat intestine primary culture cells; type: cell-based; details: test compound 20 μM, 150 min
Method: Terminal ileum and colon mucous membrane were removed from rat (Wistar, male, Charles River Japan, Inc.) and subjected to an enzyme treatment to give a cell dispersion according to the following method.
The enzyme solution used was obtained by dissolving 5 mg/ml Collagenase (Sigma), 5 mg/ml Hyaluronidase (Sigma) and 0.5 mg/ml DNaseI (Sigma) in a medium. The medium used was Dulbecco's Modified Eagle Medium (DMEM, Invitrogen) supplemented with 4.5 g/l Glucose, 5% FBS (Invitrogen), 100 units/ml Penicillin (Invitrogen), 100 μg/ml Streptomycin (Invitrogen), 50 μg/ml Gentamicin (Invitrogen) and 20 mM Hepes (pH 7.3). After digestion by the enzyme solution at 37° C., the tissue sections were prepared into dispersed cells by passing through a pipette 7 times and the cells were collected. The collected cells were washed with a buffer (incubation buffer) obtained by adding 5.5 mM Glucose and 0.1% BSA to a modified Krebs-Ringer bicarbonate buffer (KRBH, 116 mM NaCl, 4.7 mM KCl, 1.2 mM KH2PO4, 1.2 mM MgSO4, 2.5 mM CaCl2, 25 mM NaHCO3, 24 mM HEPES, pH 7.3), and preincubated at 37° C. under 5% CO2 for 30 min. 0.1 μM Phorbol ester (Wako), 1% DPPIV inhibitor (Linco) and a test compound were added to the above-mentioned incubation buffer, and the obtained buffer was added to the cells after the aforementioned preincubation and incubated for 150 min. The culture supernatant was collected and cryopreserved. The concentration of GLP-1 released in the culture supernatant was measured using an ELISA kit (Linco).

[4] = molecular target: T2, human TGR5 (Homo sapiens, UniProt Q8TDU6); assay: cAMP production increasing activity in human TGR5 expressing CHO cells; type: cell-based; details: read-out: EC50 value (concentration necessary to make the cAMP production amount 50%)
T2 construct: expressed in transfected cells; host or cells: CHO cells
T2 sequence (Q8TDU6 1-330): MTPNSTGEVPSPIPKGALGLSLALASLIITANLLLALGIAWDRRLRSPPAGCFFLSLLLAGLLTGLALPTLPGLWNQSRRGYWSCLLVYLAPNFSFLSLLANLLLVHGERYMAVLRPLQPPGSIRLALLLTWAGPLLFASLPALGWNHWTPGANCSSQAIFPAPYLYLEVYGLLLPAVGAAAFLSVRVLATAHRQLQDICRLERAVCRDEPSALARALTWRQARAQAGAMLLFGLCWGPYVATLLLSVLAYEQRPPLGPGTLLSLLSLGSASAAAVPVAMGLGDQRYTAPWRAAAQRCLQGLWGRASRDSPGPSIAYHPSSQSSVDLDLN

[5] = molecular target: T2, human TGR5; assay: as above; type: cell-based; details: test compound 1 μM, 30 min; 1 μM lithocholic acid = 100%, no addition = 0%; average of 3 groups
Method: As the assay buffer, Hank's balanced salt solution (HBSS, Invitrogen) supplemented with 0.1% bovine serum albumin (BSA, Sigma) and 0.5 mM 3-isobutyl-1-methylxanthine (IBMX, Sigma) was used. A test compound sample (1 μM) diluted with the assay buffer was added to the cells. The cells were incubated at 37° C. for 30 min. and the supernatant was suctioned. The intracellular cAMP amount increased by the stimulation of the test compound was quantitatively determined using a HitHunter™ EFC Cyclic AMP Chemiluminescence Assay Kit (ABI) kit.

[6] = test system: mock CHO cells free of human TGR5 expression; assay: cAMP production increasing activity in mock CHO cells free of human TGR5 expression; type: cell-based; details: test compounds 2 μM, average of 3 groups
Method: (§2) As the assay buffer, Hank's balanced salt solution (HBSS, Invitrogen) supplemented with 0.1% bovine serum albumin (BSA, Sigma) and 0.2 mM 3-isobutyl-1-methylxanthine (IBMX, Sigma) was used. The cells were washed twice with the assay buffer and preincubated at 37° C. for 30 min. The cells were washed twice, and test compound samples (10 μM) diluted with the assay buffer to various concentrations were added. The cells were incubated at 37° C. for 20 min. The culture supernatant was discarded, and the cAMP production amount was measured using a cAMP Screen System (ABI).

[7] = molecular target: T3, rabbit TGR5 (Oryctolagus cuniculus, UniProt Q862A8); assay: cAMP production increasing activity in rabbit TGR5 expressing CHO cells; type: cell-based; details: Experimental Example 6; 2 μM; 10 μM lithocholic acid = 100%; average of 3 groups
T3 construct: expressed in transfected cells; host or cells: CHO cells
T3 sequence (Q862A8 1-330): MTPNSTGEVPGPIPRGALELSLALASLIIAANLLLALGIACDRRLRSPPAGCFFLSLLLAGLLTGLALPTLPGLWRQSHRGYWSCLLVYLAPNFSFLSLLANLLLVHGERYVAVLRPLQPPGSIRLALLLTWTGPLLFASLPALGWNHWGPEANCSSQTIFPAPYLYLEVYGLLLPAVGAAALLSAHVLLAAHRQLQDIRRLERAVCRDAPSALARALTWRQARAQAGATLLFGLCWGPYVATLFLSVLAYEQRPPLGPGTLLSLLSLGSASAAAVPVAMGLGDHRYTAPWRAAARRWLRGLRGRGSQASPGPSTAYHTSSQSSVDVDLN
Method: as §2, with “twice” for “twice,”, “(2” for “(10”, “buffer” for “buffer to various concentrations”

[8] = test system: NCI-H716 cells; assay: intracellular cAMP production increasing action in NCI-H716 cells; type: cell-based, human; details: 10 μM, 2 hrs; production amount in TLCA (50 μM) was 100%; Base 11
Method: NCI-H716 (ATCC) was suspended in a medium (Dulbecco's Modified Eagle Medium (DMEM, Invitrogen) supplemented with 10% fetal bovine serum (Invitrogen), 100 U/ml penicillin and 100 μg/ml streptomycin), seeded in a 96 well plate, cultured for 2 days and used for cAMP production assay. As a cAMP assay buffer, modified Krebs-Ringer bicarbonate buffer (KRBH, 116 mM NaCl, 4.7 mM KCl, 1.2 mM KH2PO4, 1.2 MM MgSO4, 2.5 mM CaCl2, 25 mM NaHCO3, 24 mM HEPES pH 7.3), supplemented with glucose 5.5 mM, bovine serum albumin (BSA) 0.1%, and 3-isobutyl-1-methylxanthine (IBMX, Sigma) 1 mM, was used. The cells were washed once with cAMP assay buffer. Bile acids (50 μM) diluted with cAMP assay buffer or the compounds of the present invention (10 μM) were added thereto and the cells were incubated for 2 hrs. The culture supernatant was discarded, and the cAMP production amount was measured by cAMP Screen System (ABI). In the Table, Base means non-addition of a test compound.

[9] = Experimental Example 5, Base 0.19

Row | SMILES | cAMP producing activity (control %) [1] | activation at 2 µM [2] | GLP-1 (% relative to non-addition) [3] | EC50 [4] | cAMP production increasing activity (control %) [5] | cAMP production increasing activity ([6]; Experimental Example 4, Base 0.28) | cAMP production increasing activity (control %) [7] | cAMP production increasing activity [6, 9] | cAMP production increasing activity (%) [8]
1 | CC(c1cc(C(F)(F)F)cc(C(F)(F)F)c1)N1CCOc2nccc(-c3ccccc3)c2C1.Cl (stereo not drawn) [Example 33C, 4-{1-[3,5-bis(trifluoromethyl)phenyl]ethyl}-6-phenyl-2,3,4,5-tetrahydropyrido[3,2-f][1,4]oxazepine hydrochloride] | 111 control % | 149% | 214 % relative to non-addition | < 100 nM |  |  |  |  | 
2 | CC(C)(C)CN1C(=O)C(CC(=O)NCc2ccccc2F)N(C(=O)c2ccncc2)Cc2ccccc21 (stereo not drawn) [Example 1B, N-(2-fluorobenzyl)-2-(4-isonicotinoyl-1-neopentyl-2-oxo-2,3,4,5-tetrahydro-1H-1,4-benzodiazepin-3-yl)acetamide] |  |  |  |  | 113 control % | 0.23 pmol | 71.2 control % |  | 
3 | FC(F)(F)c1cc(CN2CCOc3nccc(-c4ccccc4)c3C2)cc(C(F)(F)F)c1 [Example 9C, 4-[3,5-bis(trifluoromethyl)benzyl]-6-phenyl-2,3,4,5-tetrahydropyrido[3,2-f][1,4]oxazepine] |  | 112% |  |  | 96 control % |  | 99 control % | 0.2 pmol | 109%
4 | FC(F)(F)c1cc(CN2CCCOc3nccc(-c4ccccc4)c3C2)cc(C(F)(F)F)c1.FC(F)(F)c1cc(CN2CCCOc3nccc(-c4ccccc4)c3C2)cc(C(F)(F)F)c1.O=S(=O)(O)O [Example 18C, 5-[3,5-bis(trifluoromethyl)benzyl]-7-phenyl-3,4,5,6-tetrahydro-2H-pyrido[2,3-b][1,5]oxazocine ½sulfate] |  |  |  |  | 112 control % |  | 106 control % | 0.17 pmol | 
5 | CC(=O)NCc1cccc(C2OC(CC(=O)NCc3ccccc3F)C(=O)N(CC(C)(C)C)c3ccc(Cl)cc32)c1 (single isomer, unassigned; (+)) [Reference Example 33, (+)-2-[3,5-trans-5-[3-(acetylaminomethyl)phenyl]-7-chloro-1-neopentyl-2-oxo-1,2,3,5-tetrahydro-4,1-benzoxazepin-3-yl]-N-(2-fluorobenzyl)acetamide] |  | 92% | 201 % relative to non-addition | < 100 nM |  |  |  |  | 
6 | O=C(c1cc(C(F)(F)F)cc(C(F)(F)F)c1)N1CCOc2nccc(-c3ccccc3)c2C1 [Example 14C, 4-[3,5-bis(trifluoromethyl)benzoyl]-6-phenyl-2,3,4,5-tetrahydropyrido[3,2-f][1,4]oxazepine] |  |  |  |  | 100 control % |  | 116 control % | 0.17 pmol | 
7 | O=S(=O)(c1cc(C(F)(F)F)cc(C(F)(F)F)c1)N1CCCOc2nccc(-c3ccccc3)c2C1 [Example 23C, 5-{[3,5-bis(trifluoromethyl)phenyl]sulfonyl}-7-phenyl-3,4,5,6-tetrahydro-2H-pyrido[2,3-b][1,5]oxazocine] | 119 control % | 148% | 133 % relative to non-addition |  |  |  |  |  | 
